How the values were obtained:
Settings in all cases: read-out: DIZ
Enterococcus faecium = assay: Antibacterial activity against vancomycin-resistant Enterococcus faecium ATCC 700221 at 10 uM by disc diffusion method; assay type: functional
Staphylococcus aureus [1] = assay: Antibacterial activity against methicillin-resistant Staphylococcus aureus BAA-1747 at 10 uM by disc diffusion method; assay type: functional
Klebsiella pneumoniae = assay: Antibacterial activity against ESBL-producer Klebsiella pneumoniae K6 700603 at 10 uM by disc diffusion method; assay type: functional
Acinetobacter baumannii [2] = assay: Antibacterial activity against ciprofloxacin-resistant Acinetobacter baumannii BAA-1605 at 10 uM by disc diffusion method; assay type: functional
Pseudomonas aeruginosa = assay: Antibacterial activity against Pseudomonas aeruginosa ATCC 15442 at 10 uM by disc diffusion method; assay type: functional
Enterobacter cloacae = assay: Antibacterial activity against Enterobacter cloacae ATCC 23355 at 10 uM by disc diffusion method; assay type: functional
Enterococcus faecalis = assay: Antibacterial activity against vancomycin-susceptible Enterococcus faecalis ATCC 29212 at 10 uM by disc diffusion method; assay type: functional
Staphylococcus aureus [3] = assay: Antibacterial activity against methicillin-susceptible Staphylococcus aureus ATCC 29213 at 10 uM by disc diffusion method; assay type: functional
[4] = Antibacterial activity against vancomycin-intermediate resistant Staphylococcus aureus Mu50 ATCC 700699 at 10 uM by disc diffusion method; assay type: functional, Staphylococcus aureus subsp. aureus Mu50
Acinetobacter baumannii [5] = assay: Antibacterial activity against Acinetobacter baumannii ATCC 19606 at 10 uM by disc diffusion method; assay type: functional
[6] = Antibacterial activity against Bacillus anthracis Sterne 34F2 at 10 uM by disc diffusion method; assay type: functional, Bacillus anthracis str. Sterne
[7] = test system: Staphylococcus epidermidis; assay: Antibacterial activity against Staphylococcus epidermidis ATCC 14990 at 10 uM by disc diffusion method; assay type: functional

| Structure (SMILES) | zone of inhibition at 10 µM (Enterococcus faecium) [mm] | zone of inhibition at 10 µM (Staphylococcus aureus [1]) [mm] | zone of inhibition at 10 µM (Klebsiella pneumoniae) [mm] | zone of inhibition at 10 µM (Acinetobacter baumannii [2]) [mm] | zone of inhibition at 10 µM (Pseudomonas aeruginosa) [mm] | zone of inhibition at 10 µM (Enterobacter cloacae) [mm] | zone of inhibition at 10 µM (Enterococcus faecalis) [mm] | zone of inhibition at 10 µM (Staphylococcus aureus [3]) [mm] | zone of inhibition at 10 µM [4] [mm] | zone of inhibition at 10 µM (Acinetobacter baumannii [5]) [mm] | zone of inhibition at 10 µM [6] [mm] | zone of inhibition at 10 µM [7] [mm] |
| --- | --- | --- | --- | --- | --- | --- | --- | --- | --- | --- | --- | --- |
| O=C(O)c1cn(C2CC2)c2cc(N3CCN(Sc4ccccc4)CC3)c(F)cc2c1=O | 10 | 22 | 20 | 0 | 27 | 26 | 20 | 21 | 12 | 23 | 36 | 23 |
| O=C(O)c1cn(C2CC2)c2cc(N3CCN(Sc4ccc(Cl)cc4)CC3)c(F)cc2c1=O | 8 | 17 | 20 | 0 | 26 | 22 | 20 | 21 | 12 | 20 | 34 | 29 |
| O=C(O)c1cn(C2CC2)c2cc(N3CCN(Sc4ccc([N+](=O)[O-])cc4)CC3)c(F)cc2c1=O | 8 | 24 | 21 | 0 | 27 | 23 | 25 | 29 | 11 | 23 | 32 | 36 |
| CCCCCCSN1CCN(c2cc3c(cc2F)c(=O)c(C(=O)O)cn3C2CC2)CC1 | 8 | 18 | 16 | 0 | 23 | 19 | 15 | 18 | 9 | 15 | 30 | 26 |
| CCSN1CCN(c2cc3c(cc2F)c(=O)c(C(=O)O)cn3C2CC2)CC1 | 0 | 22 | 23 | 0 | 32 | 25 | 25 | 24 | 11 | 24 | 37 | 32 |
| CCC(C)SN1CCN(c2cc3c(cc2F)c(=O)c(C(=O)O)cn3C2CC2)CC1 (stereo unspecified) | 8 | 23 | 20 | 0 | 27 | 23 | 22 | 24 | 11 | 22 | 35 | 32 |
| CCCCSN1CCN(c2cc3c(cc2F)c(=O)c(C(=O)O)cn3C2CC2)CC1 | 0 | 20 | 21 | 0 | 28 | 25 | 23 | 22 | 11 | 22 | 37 | 34 |
| O=C(O)c1cn(C2CC2)c2cc(N3CCN(Sc4ccccc4[N+](=O)[O-])CC3)c(F)cc2c1=O | 0 | 19 | 9 | 0 | 9 | 19 | 20 | 18 | 0 | 19 | 27 | 23 |
